± gives the expanded uncertainty stated by the source.
What was measured:
[1] = 101 kPa, Liquid, Vibrating tube method
[2] = xn = mol fraction of the nth substance listed; settings: 101 kPa, Liquid, Vibrating tube method, x2 = 0.333

| mass density ([1]; 293.15 K) | mass density ([1]; 303.15 K) | mass density ([1]; 313.15 K) | mass density ([1]; 323.15 K) | mass density ([2]; 293.15 K) | mass density ([2]; 303.15 K) | mass density ([2]; 313.15 K) | mass density ([2]; 323.15 K) | SMILES |
| --- | --- | --- | --- | --- | --- | --- | --- | --- |
| 792.6 ± 2 kg/m3 | 783 ± 2 kg/m3 | 773.5 ± 2 kg/m3 | 764 ± 2 kg/m3 | – | – | – | – | CO [methanol] |
| – | – | – | – | 1199.7 ± 2 kg/m3 | 1194.2 ± 2 kg/m3 | 1188.6 ± 2 kg/m3 | 1183.2 ± 2 kg/m3 | NC(N)=O [urea] + C[N+](C)(C)CCO.[Cl-] |

Source: the NIST ThermoML archive (doi:10.1016/j.jct.2018.04.010)
